Measurements as given in PubChem BioAssay AID2060498 (Molecular Pharmacology Branch, DTP, NCI, 2025).
pIC50: −log10 of the molar value.

System: 171881-019-R-J1-PDC tumor spheroids, viability
Test: Anticancer human tumor 171881-019-R-J1-PDC patient-derived invasive breast carcinoma cell line growth inhibition [GQUAD]
Conditions: spheroids with HUVEC and MSC; for pIC50: curve of first compound; for viability, T/C: stronger effect = lower value
Outline: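 Viability of tumor cells grown as complex spheroids with endothelial and stromal cells, exposed to drug combinations. Top concentration at or near clinical Cmax (else 10 microM), diluted in half-log increments.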

[1] = second compound 0.0316 µM, first compound 0.0316 µM
[2] = second compound 0.0316 µM, first compound 0.1 µM
[3] = second compound 0.0316 µM, first compound 0.316 µM
[4] = second compound 0.0316 µM, first compound 1 µM
[5] = second compound 0.0316 µM, first compound 3.16 µM
[6] = second compound 0.0316 µM, first compound 10 µM
[7] = second compound 0.1 µM, first compound 0.0316 µM
[8] = second compound 0.1 µM, first compound 0.1 µM
[9] = second compound 0.1 µM, first compound 0.316 µM
[10] = second compound 0.1 µM, first compound 1 µM
[11] = second compound 0.1 µM, first compound 3.16 µM
[12] = second compound 0.1 µM, first compound 10 µM
[13] = second compound 0.316 µM, first compound 0.0316 µM
[14] = second compound 0.316 µM, first compound 0.1 µM
[15] = second compound 0.316 µM, first compound 0.316 µM
[16] = second compound 0.316 µM, first compound 1 µM
[17] = second compound 0.316 µM, first compound 3.16 µM
[18] = second compound 0.316 µM, first compound 10 µM
[19] = second compound 1 µM, first compound 0.0316 µM
[20] = second compound 1 µM, first compound 0.1 µM
[21] = second compound 1 µM, first compound 0.316 µM
[22] = second compound 1 µM, first compound 1 µM
[23] = second compound 1 µM, first compound 3.16 µM
[24] = second compound 1 µM, first compound 10 µM
[25] = second compound 3.16 µM, first compound 0.0316 µM
[26] = second compound 3.16 µM, first compound 0.1 µM
[27] = second compound 3.16 µM, first compound 0.316 µM
[28] = second compound 3.16 µM, first compound 1 µM
[29] = second compound 3.16 µM, first compound 3.16 µM
[30] = second compound 3.16 µM, first compound 10 µM
[31] = second compound 10 µM, first compound 0.0316 µM
[32] = second compound 10 µM, first compound 0.1 µM
[33] = second compound 10 µM, first compound 0.316 µM
[34] = second compound 10 µM, first compound 1 µM
[35] = second compound 10 µM, first compound 3.16 µM
[36] = second compound 10 µM, first compound 10 µM
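For viability, T/C in this document: 100% = DMSO vehicle control viability.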

## CC(C)n1c(=O)n(C)c2cnc3cc(F)c(-c4ccc(OCCCN5CCCCC5)nc4)cc3c21 + CN(C)c1ccc(Nc2c3ccc(NC(=O)CCN4CCCC4)cc3nc3cc(NC(=O)CCN4CCCC4)ccc23)cc1
Second compound 0.0316 µM
  pIC50: 5.62
Second compound 0.1 µM
  pIC50: 5.66
Second compound 0.316 µM
  pIC50: 6.17
Second compound 1 µM
  pIC50: > 7.50
Second compound 3.16 µM
  pIC50: > 7.50
Second compound 10 µM
  pIC50: > 7.50
[1]
  viability, T/C: 95.7%
[2]
  viability, T/C: 100%
[3]
  viability, T/C: 88.1%
[4]
  viability, T/C: 80.4%
[5]
  viability, T/C: 40.4%
[6]
  viability, T/C: 12.9%
[7]
  viability, T/C: 93%
[8]
  viability, T/C: 108%
[9]
  viability, T/C: 92%
[10]
  viability, T/C: 84.9%
[11]
  viability, T/C: 34.3%
[12]
  viability, T/C: 9.41%
[13]
  viability, T/C: 82.2%
[14]
  viability, T/C: 79.6%
[15]
  viability, T/C: 69.3%
[16]
  viability, T/C: 37.6%
[17]
  viability, T/C: 20.3%
[18]
  viability, T/C: 4.16%
[19]
  viability, T/C: 18.5%
[20]
  viability, T/C: 16.8%
[21]
  viability, T/C: 19.4%
[22]
  viability, T/C: 8.58%
[23]
  viability, T/C: 6.36%
[24]
  viability, T/C: 1.3%
[25]
  viability, T/C: 1.45%
[26]
  viability, T/C: 1.78%
[27]
  viability, T/C: 1.74%
[28]
  viability, T/C: 1.06%
[29]
  viability, T/C: 1.03%
[30]
  viability, T/C: 0.15%
[31]
  viability, T/C: 0.27%
[32]
  viability, T/C: 0.4%
[33]
  viability, T/C: 0.34%
[34]
  viability, T/C: 0.37%
[35]
  viability, T/C: 0.25%
[36]
  viability, T/C: 0.28%

## CC1COCCN1c1cc(-c2ccnn2C)c2ccnc(-c3ccn[nH]3)c2n1 (stereo not drawn) + CN(C)c1ccc(Nc2c3ccc(NC(=O)CCN4CCCC4)cc3nc3cc(NC(=O)CCN4CCCC4)ccc23)cc1
Second compound 0.0316 µM
  pIC50: 7.19
Second compound 0.1 µM
  pIC50: 7.28
Second compound 0.316 µM
  pIC50: 7.39
Second compound 1 µM
  pIC50: > 7.50
Second compound 3.16 µM
  pIC50: > 7.50
Second compound 10 µM
  pIC50: > 7.50
[1]
  viability, T/C: 76.9%
[2]
  viability, T/C: 34.1%
[3]
  viability, T/C: 12.4%
[4]
  viability, T/C: 5.31%
[5]
  viability, T/C: 1.79%
[6]
  viability, T/C: 1.42%
[7]
  viability, T/C: 64.8%
[8]
  viability, T/C: 30.4%
[9]
  viability, T/C: 11.6%
[10]
  viability, T/C: 5.34%
[11]
  viability, T/C: 1.93%
[12]
  viability, T/C: 1.63%
[13]
  viability, T/C: 55.2%
[14]
  viability, T/C: 31.6%
[15]
  viability, T/C: 10.3%
[16]
  viability, T/C: 3.25%
[17]
  viability, T/C: 1.4%
[18]
  viability, T/C: 1.07%
[19]
  viability, T/C: 20.7%
[20]
  viability, T/C: 8.28%
[21]
  viability, T/C: 4.88%
[22]
  viability, T/C: 1.45%
[23]
  viability, T/C: 0.66%
[24]
  viability, T/C: 0.48%
[25]
  viability, T/C: 1.59%
[26]
  viability, T/C: 1.01%
[27]
  viability, T/C: 0.89%
[28]
  viability, T/C: 0.34%
[29]
  viability, T/C: 0.71%
[30]
  viability, T/C: 0.14%
[31]
  viability, T/C: 0.16%
[32]
  viability, T/C: 0.3%
[33]
  viability, T/C: 0.33%
[34]
  viability, T/C: 0.32%
[35]
  viability, T/C: 0.43%
[36]
  viability, T/C: 0.14%

## CC1COCCN1c1cc(C2(S(C)(=N)=O)CC2)nc(-c2ccnc3[nH]ccc23)n1 (stereo not drawn) + CN(C)c1ccc(Nc2c3ccc(NC(=O)CCN4CCCC4)cc3nc3cc(NC(=O)CCN4CCCC4)ccc23)cc1
Second compound 0.0316 µM
  pIC50: 5.86
Second compound 0.1 µM
  pIC50: 5.92
Second compound 0.316 µM
  pIC50: 6.18
Second compound 1 µM
  pIC50: > 7.50
Second compound 3.16 µM
  pIC50: > 7.50
Second compound 10 µM
  pIC50: > 7.50
[1]
  viability, T/C: 97.3%
[2]
  viability, T/C: 109%
[3]
  viability, T/C: 99.8%
[4]
  viability, T/C: 62.6%
[5]
  viability, T/C: 15.8%
[6]
  viability, T/C: 6.43%
[7]
  viability, T/C: 98.9%
[8]
  viability, T/C: 99.1%
[9]
  viability, T/C: 81%
[10]
  viability, T/C: 59.1%
[11]
  viability, T/C: 16.8%
[12]
  viability, T/C: 6.7%
[13]
  viability, T/C: 77.7%
[14]
  viability, T/C: 88%
[15]
  viability, T/C: 63%
[16]
  viability, T/C: 41.6%
[17]
  viability, T/C: 16.7%
[18]
  viability, T/C: 4.97%
[19]
  viability, T/C: 26%
[20]
  viability, T/C: 13.1%
[21]
  viability, T/C: 20.5%
[22]
  viability, T/C: 11.9%
[23]
  viability, T/C: 7.12%
[24]
  viability, T/C: 2.2%
[25]
  viability, T/C: 1.87%
[26]
  viability, T/C: 1.5%
[27]
  viability, T/C: 1.71%
[28]
  viability, T/C: 0.99%
[29]
  viability, T/C: 0.76%
[30]
  viability, T/C: 0.35%
[31]
  viability, T/C: 0.19%
[32]
  viability, T/C: 0.55%
[33]
  viability, T/C: 0.48%
[34]
  viability, T/C: 0.52%
[35]
  viability, T/C: 0.54%
[36]
  viability, T/C: 0.25%

## COc1ccc([C@@H](O)c2cc(-c3ncnc4cc(N5CCOCC5)ccc34)c(F)cc2Cl)nn1 + CN(C)c1ccc(Nc2c3ccc(NC(=O)CCN4CCCC4)cc3nc3cc(NC(=O)CCN4CCCC4)ccc23)cc1
Second compound 0.0316 µM
  pIC50: 6.26
Second compound 0.1 µM
  pIC50: 6.24
Second compound 0.316 µM
  pIC50: 6.47
Second compound 1 µM
  pIC50: > 7.50
Second compound 3.16 µM
  pIC50: > 7.50
Second compound 10 µM
  pIC50: > 7.50
[1]
  viability, T/C: 97.2%
[2]
  viability, T/C: 85.8%
[3]
  viability, T/C: 62.5%
[4]
  viability, T/C: 37.6%
[5]
  viability, T/C: 7.36%
[6]
  viability, T/C: 1.57%
[7]
  viability, T/C: 94.5%
[8]
  viability, T/C: 87%
[9]
  viability, T/C: 64.2%
[10]
  viability, T/C: 37.5%
[11]
  viability, T/C: 7.17%
[12]
  viability, T/C: 1.52%
[13]
  viability, T/C: 79.3%
[14]
  viability, T/C: 72.5%
[15]
  viability, T/C: 52.2%
[16]
  viability, T/C: 18.2%
[17]
  viability, T/C: 4.99%
[18]
  viability, T/C: 0.9%
[19]
  viability, T/C: 27.1%
[20]
  viability, T/C: 17.4%
[21]
  viability, T/C: 18.6%
[22]
  viability, T/C: 4.62%
[23]
  viability, T/C: 1.37%
[24]
  viability, T/C: 0.46%
[25]
  viability, T/C: 1.64%
[26]
  viability, T/C: 2.1%
[27]
  viability, T/C: 1.49%
[28]
  viability, T/C: 0.45%
[29]
  viability, T/C: 0.38%
[30]
  viability, T/C: 0.23%
[31]
  viability, T/C: 0.4%
[32]
  viability, T/C: 0.57%
[33]
  viability, T/C: 0.32%
[34]
  viability, T/C: 0.19%
[35]
  viability, T/C: 0.14%
[36]
  viability, T/C: 0.38%
